{"source": "paper PMC5360176", "about": "(Journal of clinical psychopharmacology, 2016)", "key": {"[1]": {"conditions": "cited from earlier work"}, "[2]": {"conditions": "human, in vivo"}, "[3]": {"conditions": "human, in vivo", "remark": "listed apart in the source"}, "[4]": {"system": "CAII", "conditions": "high affinity RBC isoform; cited from earlier work"}, "[5]": {"conditions": "human, in vivo", "remark": "listed apart in the source"}, "[6]": {"system": "CAI", "conditions": "low affinity RBC isoform; cited from earlier work"}, "[7]": {"test": "clinical", "conditions": "human, in vivo"}, "[8]": {"test": "clinical", "conditions": "human, in vivo", "remark": "listed apart in the source"}, "[9]": {"test": "clinical", "conditions": "human, in vivo", "remark": "listed apart in the source"}, "[10]": {"conditions": "oxycodone 30 mg p.o."}, "[11]": {"conditions": "noroxycodone in plasma after oxycodone + ACZ, Day 5"}, "[12]": {"conditions": "noroxycodone in plasma after oxycodone alone, Day 1"}, "[13]": {"conditions": "noroxycodone in plasma after oxycodone alone, Day 8"}, "[14]": {"conditions": "therapeutic dose of ~400 mg ACZ/day"}}, "note": "Several values for one entry are separate records, joined by “and”; a condition that tells them apart may be missing. Equal values may be shown once. Read-outs that look alike come from different tables or passages of the source.", "data": [{"smiles": "COc1ccc2c3c1O[C@H]1C(=O)CC[C@@]4(O)[C@@H](C2)NCC[C@]314", "note": "[Noroxycodone]", "values": [{"measurement": "Area under Curve", "setting": "[11]", "result": 218, "unit": "ng·h/mL"}, {"measurement": "Cmax", "setting": "[11]", "result": 30, "unit": "ng/mL"}, {"measurement": "Tmax", "setting": "[11]", "result": 54, "unit": "min"}, {"measurement": "half-life", "setting": "[11]", "result": 300, "unit": "min"}, {"measurement": "Cmax", "setting": "[12]", "result": 34.9, "unit": "ng/mL"}, {"measurement": "Tmax", "setting": "[12]", "result": 54, "unit": "min"}, {"measurement": "half-life", "setting": "[12]", "result": 258, "unit": "min"}, {"measurement": "Area under Curve", "setting": "[13]", "result": 213, "unit": "ng·h/mL"}, {"measurement": "Cmax", "setting": "[13]", "result": 30.2, "unit": "ng/mL"}, {"measurement": "Tmax", "setting": "[13]", "result": 54, "unit": "min"}, {"measurement": "half-life", "setting": "[13]", "result": 282, "unit": "min"}, {"measurement": "Area under Curve", "setting": "noroxycodone metabolite in plasma after oxycodone alone, Day 1, one-compartment", "result": 224, "unit": "ng·h/mL"}, {"measurement": "Effect of ACZ on noroxycodone PK parameters", "setting": "presence or absence of ACZ", "result": "no differences in any of the PK parameters"}]}, {"smiles": "CC(=O)Nc1nnc(S(N)(=O)=O)s1", "note": "[ACZ, Acetazolamide]", "values": [{"measurement": "RBC concentration with which side effects correlate", "setting": "[1]; therapeutic (~400 mg / day) doses", "result": "exceed 90 µM"}, {"measurement": "Mean RBC concentration", "setting": "[1]; [14]", "result": "121 ± 46", "unit": "µM"}, {"measurement": "Mean plasma concentration", "setting": "[1]; [14]", "result": "51 ± 40", "unit": "µM"}, {"measurement": "Cmax", "setting": "[2]", "result": 1285, "unit": "ng/mL"}, {"measurement": "Plasma Area under Curve", "setting": "[2]", "result": 5568, "unit": "ng/mlblood*h"}, {"measurement": "Time of plasma maximum concentration (Cmax) after administration", "setting": "[2]", "result": "≤ 1", "unit": "h"}, {"measurement": "Tmax", "setting": "[2]", "result": 30, "unit": "min"}, {"measurement": "Blood Area under Curve", "setting": "[3]", "result": 52130, "unit": "ng/ml*h"}, {"measurement": "RBCs (minus residuum) Area under Curve", "setting": "[3]", "result": 49555, "unit": "ng/mlblood*h"}, {"measurement": "RBCs (total) Area under Curve", "setting": "[3]", "result": 133107, "unit": "ng/mlblood*h"}, {"measurement": "Maximum ACZ binding capacity", "setting": "[4]", "result": 17, "unit": "µM"}, {"measurement": "Urinary excretion rate Cmax", "setting": "[5]", "result": 669, "unit": "µg/h"}, {"measurement": "Slowest individual urinary elimination rate (low outlier)", "setting": "[5]; 48 h", "result": 87, "unit": "µg/h"}, {"measurement": "Fastest individual urinary elimination rate (high outlier)", "setting": "[5]; 96 h", "result": 33, "unit": "µg/h"}, {"measurement": "Max binding capacity", "setting": "[6]", "result": 155, "unit": "µM"}, {"measurement": "Cmax", "setting": "[7]; Blood Cmax", "result": 776, "unit": "ng/mL"}, {"measurement": "Tmax", "setting": "[7]; Blood Tmax", "result": 4.8, "unit": "h"}, {"measurement": "Cmax", "setting": "[7]; RBCs (minus residuum) Cmax", "result": 636, "unit": "ng/mL"}, {"measurement": "Tmax", "setting": "[7]; RBCs (minus residuum) Tmax", "result": 7.5, "unit": "h"}, {"measurement": "Cmax", "setting": "[7]; RBCs (total) Cmax", "result": 1790, "unit": "ng/mL"}, {"measurement": "Cmax", "setting": "[7]; RBCtotal Cmax", "result": "17 ± 1", "unit": "µM"}, {"measurement": "Tmax", "setting": "[8]", "result": 7.2, "unit": "h"}, {"measurement": "Cmax", "setting": "[9]; Cmax", "result": 1310, "unit": "ng/mL"}, {"measurement": "Cmax", "setting": "[9]; Plasma Cmax", "result": 660, "unit": "ng/mL"}, {"measurement": "Tmax", "setting": "[9]; Plasma Tmax", "result": 1, "unit": "h"}, {"measurement": "Tmax", "setting": "[9]; Tmax", "result": 1, "unit": "h"}]}, {"smiles": "COc1ccc2c3c1O[C@H]1C(=O)CC[C@@]4(O)[C@@H](C2)N(C)CC[C@]314", "note": "[Oxycodone]", "values": [{"measurement": "Opioid Agonist Checklist scores as rated by subjects and observers", "setting": "[10]", "result": "increased scores on an Opioid Agonist Checklist"}, {"measurement": "Pupil diameter", "setting": "[10]", "result": "sustained pupil miosis"}, {"measurement": "Ratings on a visual analog scale of drug liking", "setting": "[10]", "result": "increased ratings on a visual analog scale of drug liking"}, {"measurement": "Tmax", "setting": "human, in vivo, 30 mg", "result": 60, "unit": "min"}, {"measurement": "Cmax", "setting": "human, in vivo, 30 mg, Cmax, oxycodone alone, Day 1, plasma", "result": 61.6, "unit": "ng/mL"}, {"measurement": "Cmax", "setting": "human, in vivo, 30 mg, Cmax, oxycodone alone, Day 8, plasma", "result": 68.5, "unit": "ng/mL"}, {"measurement": "half-life", "setting": "human, in vivo, 30 mg, α-Half-life, oxycodone alone, Day 8, plasma", "result": "8.4 ± 3.6", "unit": "min"}, {"measurement": "half-life", "setting": "human, in vivo, 30 mg, β-Half-life, oxycodone alone, Day 1, plasma", "result": 234, "unit": "min"}, {"measurement": "half-life", "setting": "human, in vivo, 30 mg, β-Half-life, oxycodone alone, Day 8, plasma", "result": 246, "unit": "min"}, {"measurement": "Cmax", "setting": "human, in vivo, Cmax, oxycodone + ACZ, Day 5, plasma", "result": 71.4, "unit": "ng/mL"}, {"measurement": "half-life", "setting": "human, in vivo, α-Half-life, oxycodone + ACZ 15 mg, Day 5, plasma", "result": 12, "unit": "min"}, {"measurement": "half-life", "setting": "human, in vivo, β-Half-life, oxycodone + ACZ, Day 5, plasma", "result": 246, "unit": "min"}, {"measurement": "Area under Curve", "setting": "oxycodone + ACZ, Day 5, plasma", "result": 341.3, "unit": "ng·h/mL"}, {"measurement": "Area under Curve", "setting": "oxycodone alone, Day 1, plasma", "result": "281.1 ^♦ h*ng/ml"}, {"measurement": "Area under Curve", "setting": "oxycodone alone, Day 8, plasma", "result": 318.6, "unit": "ng·h/mL"}, {"measurement": "Tmax", "setting": "oxycodone alone, Day 8, plasma", "result": 60, "unit": "min"}, {"measurement": "α-Half-life", "setting": "oxycodone alone, Day 8, plasma", "result": "0.1 ^♦ h"}, {"measurement": "Difference in oxycodone AUC (exposure), Day 5 with ACZ vs Day 1 alone", "setting": "p<0.05, not different from Day 8", "result": "20% and 20 ± 11%"}]}]}
